Tests used:
[1] = test system: heart-type fatty acid binding protein (hFABP); assay: efficacy study: plasma hFABP release (ELISA); format: in vivo, swine
Protocol: Next, an efficacy study was performed, in adherence to published guidelines for rigor and reproducibility, to evaluate the postulated benefit of DMX-10001 in a large-mammal model of MI. Briefly, 36 closed-chest swine (41 ± 2 kg) were subjected to regional ischemia by occluding the left anterior descending coronary artery (LAD) distal to the first diagonal branch for 60 min, followed by 24 h of reperfusion. Treatment with DMX-10001 (60 mg/kg/h for 0.5 h, followed by 17 mg/kg/h for 23.5 h) versus the vehicle was initiated 20 min prior to reperfusion and continued for 1 day. After 2 h of reperfusion, animals were allowed to recover from anesthesia. At 24 h of reperfusion, the infarct area (IA), area of no-reflow (NR), and area at ischemic risk (AAR) were determined. […] Heart-type fatty acid binding protein (hFABP) release was measured, as a biomarker that correlates with IS and NR in swine at least as well as cardiac troponin I [30]. […] Levels of DMX-10001 and DMX-5804 were determined by liquid chromatography–mass spectrometry (Pharmidex, London, UK). Porcine hFABP was analyzed as described: plasma samples were thawed on ice, diluted 10 × using the standard diluent provided with the kit, and analyzed by enzyme-linked immunosorbent assays according to the manufacturer’s instructions (Life Diagnostics, West Chester, PA). […]

[2] = test system: porcine model of MI; assay: efficacy study: hemodynamics and LV function; format: in vivo, swine; settings: for 2-D ejection fraction / LV end-diastolic lumen surface / LV end-diastolic wall thickness (infarct region) / LV end-systolic lumen surface / LV end-systolic wall thickness (infarct region) / Systolic Wall thickening (infarct region): echocardiography; for DAP / HR / MAP / SAP: fluid-filled catheter
Protocol: Next, an efficacy study was performed, in adherence to published guidelines for rigor and reproducibility, to evaluate the postulated benefit of DMX-10001 in a large-mammal model of MI. Briefly, 36 closed-chest swine (41 ± 2 kg) were subjected to regional ischemia by occluding the left anterior descending coronary artery (LAD) distal to the first diagonal branch for 60 min, followed by 24 h of reperfusion. Treatment with DMX-10001 (60 mg/kg/h for 0.5 h, followed by 17 mg/kg/h for 23.5 h) versus the vehicle was initiated 20 min prior to reperfusion and continued for 1 day. After 2 h of reperfusion, animals were allowed to recover from anesthesia. At 24 h of reperfusion, the infarct area (IA), area of no-reflow (NR), and area at ischemic risk (AAR) were determined. Transthoracic short-axis B-mode echocardiograms and measurements of LV pressure and its first derivative (LVdP/dt) were obtained at baseline and at 24 h of reperfusion. LV pressure–volume measurements were obtained at 24 h of reperfusion. Heart-type fatty acid binding protein (hFABP) release was measured, as a biomarker that correlates with IS and NR in swine at least as well as cardiac troponin I [30].
A transthoracic short-axis B-mode echocardiogram (ZS3, Zonare Medical Systems, Mountain View, CA) was performed to determine LV contractile performance. LV pressure and its first derivative (LVdP/dt) were determined using a micro-manometer-tipped catheter (SPR-350S, Millar Inc., Houston, TX), before infarct induction and again before killing. Terminal LV pressure–volume measurements were also performed, using a 7F conductance catheter (CD Leycom, Hengelo, The Netherlands) advanced into the LV [32]. After calibration of the system, pressure–volume loops were recorded during a breath hold.
Hemodynamic and LV global function were recorded and digitized online using a three-channel data acquisition program (ATCODAS, Dataq Instruments Inc., Akron OH) and stored on a computer for off-line analysis with a program written in MATLAB (Mathworks Inc., Natick, MA). A minimum of 10 s was selected for analysis of the digitized hemodynamic signals. Pressure–volume-related data were recorded and stored on a computer for off-line analysis (CD Leycom, Hengelo, The Netherlands). Statistical significance (P < 0.05, two tailed) for changes was determined by two-way ANOVA (time point in protocol x treatment) for repeated measures, followed by post hoc testing with the Bonferonni multiple comparison test.

[3] = Millar catheter, Day 1 Baseline
[4] = Millar catheter, Day 2 End of Reperfusion
[5] = conductance catheter, End of Reperfusion
[6] = Coronary artery occlusion 15 min
[7] = Coronary artery occlusion 40 min
[8] = Coronary artery occlusion 60 min

`COCCOc1ccc(-c2cn(-c3ccccc3)c3ncn(COP(=O)(O)O)c(=O)c23)cc1` [DMX-10001] was tested, and the “plasma level of hFABP” value ([1]; 60 min of reperfusion) was 120 ± 19 ng/mL, the “plasma level of hFABP” value ([1]; baseline) was 8 ± 2 ng/mL and the “LV dP/dtmax” value [2, 3] was 1830 mmHg/s. For the same compound, the “LV dP/dtmin” value [2, 3] was -2080 mmHg/s, the “LV dPdtP40” value [2, 3] was 1640 mmHg/s and the LV end-diastolic pressure [2, 3] was 8 mmHg. The “LV peak systolic pressure” value [2, 3] was 102 mmHg, the tau [2, 3] was 34 ms and the “LV dP/dtmax” value [2, 4] was 920 mmHg/s. The “LV dP/dtmin” value [2, 4] was -1240 mmHg/s, the “LV dPdtP40” value [2, 4] was 800 mmHg/s and the LV end-diastolic pressure [2, 4] was 13 mmHg. The “LV peak systolic pressure” value [2, 4] was 78 mmHg, the tau [2, 4] was 44 ms and the 3-D ejection fraction [2, 5] was 34%. It also gave a Cardiac output [2, 5] of 4.7 L/min, a Heart rate [2, 5] of 109 beats/min and an LV end-diastolic pressure [2, 5] of 10 mmHg. The LV end-diastolic volume [2, 5] was 138 mL, the LV end-systolic volume [2, 5] was 96 mL and the LV peak-systolic pressure [2, 5] was 73 mmHg. It also gave a Stroke volume [2, 5] of 45 mL/beat, a tau [2, 5] of 28 ms and a 2-D ejection fraction ([2]; Day 1 Baseline) of 44%. The “LV end-diastolic lumen surface” value ([2]; Day 1 Baseline) was 1843 mm^2, the “LV end-diastolic wall thickness (infarct region)” value ([2]; Day 1 Baseline) was 7.4 mm and the “LV end-systolic lumen surface” value ([2]; Day 1 Baseline) was 1034 mm^2. The “LV end-systolic wall thickness (infarct region)” value ([2]; Day 1 Baseline) was 10.7 mm, the “Systolic Wall thickening (infarct region)” value ([2]; Day 1 Baseline) was 49% and the 2-D ejection fraction ([2]; Day 2 End of Reperfusion) was 25%. The “LV end-diastolic lumen surface” value ([2]; Day 2 End of Reperfusion) was 1916 mm^2, the “LV end-diastolic wall thickness (infarct region)” value ([2]; Day 2 End of Reperfusion) was 8.5 mm and the “LV end-systolic lumen surface” value ([2]; Day 2 End of Reperfusion) was 1435 mm^2. The “LV end-systolic wall thickness (infarct region)” value ([2]; Day 2 End of Reperfusion) was 8.7 mm, the “Systolic Wall thickening (infarct region)” value ([2]; Day 2 End of Reperfusion) was 3% and the “effect on hemodynamic and LV functional end-points after ischemia–reperfusion” value ([2]; efficacy study) was “neither worsened nor enhanced”. The DAP ([2]; Baseline) was 75 ± 15 mmHg, the HR ([2]; Baseline) was 124 ± 33 bpm and the MAP ([2]; Baseline) was 89 ± 16 mmHg. For the same compound, the SAP ([2]; Baseline) was 107 ± 14 mmHg, the DAP [2, 6] was 76 ± 28 mmHg and the HR [2, 6] was 89 ± 40 bpm. It also gave an MAP [2, 6] of 91 ± 30 mmHg, an SAP [2, 6] of 110 ± 34 mmHg and a DAP [2, 7] of 58 ± 16 mmHg. It also gave an HR [2, 7] of 78 ± 31 bpm, an MAP [2, 7] of 71 ± 17 mmHg and an SAP [2, 7] of 88 ± 18 mmHg. It also gave a DAP [2, 8] of 52 ± 10 mmHg, an HR [2, 8] of 71 ± 21 bpm and an MAP [2, 8] of 65 ± 11 mmHg. For the same compound, the SAP [2, 8] was 82 ± 13 mmHg, the DAP ([2]; Reperfusion (day 1) 10 min) was 61 ± 13 mmHg and the HR ([2]; Reperfusion (day 1) 10 min) was 99 ± 22 bpm. For the same compound, the MAP ([2]; Reperfusion (day 1) 10 min) was 74 ± 13 mmHg, the SAP ([2]; Reperfusion (day 1) 10 min) was 91 ± 13 mmHg and the DAP ([2]; Reperfusion (day 1) 30 min) was 63 ± 11 mmHg. For the same compound, the HR ([2]; Reperfusion (day 1) 30 min) was 120 ± 31 bpm, the MAP ([2]; Reperfusion (day 1) 30 min) was 73 ± 11 mmHg and the SAP ([2]; Reperfusion (day 1) 30 min) was 88 ± 11 mmHg. The DAP ([2]; Reperfusion (day 1) 120 min) was 62 ± 9 mmHg, the HR ([2]; Reperfusion (day 1) 120 min) was 94 ± 26 bpm and the MAP ([2]; Reperfusion (day 1) 120 min) was 73 ± 9 mmHg. For the same compound, the SAP ([2]; Reperfusion (day 1) 120 min) was 87 ± 10 mmHg, the DAP ([2]; Reperfusion (day 2) 22h 40 min) was 56 ± 13 mmHg and the HR ([2]; Reperfusion (day 2) 22h 40 min) was 112 ± 24 bpm. It also gave an MAP ([2]; Reperfusion (day 2) 22h 40 min) of 67 ± 13 mmHg, an SAP ([2]; Reperfusion (day 2) 22h 40 min) of 80 ± 13 mmHg and a DAP ([2]; Reperfusion (day 2) 23h 40 min) of 62 ± 17 mmHg. The HR ([2]; Reperfusion (day 2) 23h 40 min) was 103 ± 14 bpm, the MAP ([2]; Reperfusion (day 2) 23h 40 min) was 75 ± 18 mmHg and the SAP ([2]; Reperfusion (day 2) 23h 40 min) was 91 ± 20 mmHg.

Reference: article PMC8137473, “Preclinical trial of a MAP4K4 inhibitor to reduce infarct size in the pig: does cardioprotection in human stem cell-derived myocytes predict success in large mammals?” (Basic Research in Cardiology, 2021)
